One assay concerns the target p110 delta (Homo sapiens (Human), UniProt O00329). Kind of assay: PI3K isoform inhibition assay, p110 delta (fluorescence polarization displacement). It is filed as biochemical. As for the experimental part:
(§1) PI3K enzymatic activity was assayed by measuring the amount of product phosphatidylinositol 3,4,5-phosphate (PIP3) formed from substrate 4,5 phosphatidylinositol 4,5-phosphate (PIP2) using a fluorescence polarization displacement assay. The decrease in fluorescence polarization of a fluorescent PIP3 probe is measured as it is displaced from a PIP3-binding protein GRP-1 detector by PI3K-catalyzed product. […] The kinase reactions were initiated by the addition of 40 ng/mL p110α/p85α, 300 ng/mL p110β/p85α, 40 ng/mL p110γ, or 40 ng/mL p110δ/p85α (Upstate Group, Millipore; Dundee, UK), and 10 μM PIP2 (Echelon Biosciences) to the wells. […] After 60 minutes of incubation at room temperature to allow equilibration of labeled and unlabeled PIP3 binding, the parallel and perpendicular components of the fluorescence emissions from each sample were measured at an excitation wavelength of 530 nm and an emission wavelength of 590 nm using an Envision fluorescent plate reader with a rhodamine filter (PerkinElmer Life and Analytical Sciences; Wellesley, Mass.). The assay is capable of detecting 0.1-2.0 μM PIP3 product. The IC50 values were obtained by fitting the dose-dependent inhibition data to a 4-parameter equation using Assay Explorer software (MDL, San Ramon, Calif.).
The Formula I compound was serially diluted in 100% DMSO. The kinase reaction was incubated for 1 h at room temperature, and the reaction was terminated by the addition of PBS. IC50 values were subsequently determined using sigmoidal dose-response curve fit (variable slope).
(§2) The four Class I PI 3-kinases are cloned into baculovirus vectors as follows: […]

Another assay addresses p110 alpha (Homo sapiens (Human), UniProt P42336). Nature of the assay: PI3K isoform inhibition assay, p110 alpha (for alpha/delta selectivity). As to conditions: ratio of biochemical IC50 values. As for the experimental part: as §1
The same protocol may be used to establish IC50 values for p110α (alpha) PI3K binding.
as §2

Sequence of p110 alpha (P42336 whole entry, canonical isoform): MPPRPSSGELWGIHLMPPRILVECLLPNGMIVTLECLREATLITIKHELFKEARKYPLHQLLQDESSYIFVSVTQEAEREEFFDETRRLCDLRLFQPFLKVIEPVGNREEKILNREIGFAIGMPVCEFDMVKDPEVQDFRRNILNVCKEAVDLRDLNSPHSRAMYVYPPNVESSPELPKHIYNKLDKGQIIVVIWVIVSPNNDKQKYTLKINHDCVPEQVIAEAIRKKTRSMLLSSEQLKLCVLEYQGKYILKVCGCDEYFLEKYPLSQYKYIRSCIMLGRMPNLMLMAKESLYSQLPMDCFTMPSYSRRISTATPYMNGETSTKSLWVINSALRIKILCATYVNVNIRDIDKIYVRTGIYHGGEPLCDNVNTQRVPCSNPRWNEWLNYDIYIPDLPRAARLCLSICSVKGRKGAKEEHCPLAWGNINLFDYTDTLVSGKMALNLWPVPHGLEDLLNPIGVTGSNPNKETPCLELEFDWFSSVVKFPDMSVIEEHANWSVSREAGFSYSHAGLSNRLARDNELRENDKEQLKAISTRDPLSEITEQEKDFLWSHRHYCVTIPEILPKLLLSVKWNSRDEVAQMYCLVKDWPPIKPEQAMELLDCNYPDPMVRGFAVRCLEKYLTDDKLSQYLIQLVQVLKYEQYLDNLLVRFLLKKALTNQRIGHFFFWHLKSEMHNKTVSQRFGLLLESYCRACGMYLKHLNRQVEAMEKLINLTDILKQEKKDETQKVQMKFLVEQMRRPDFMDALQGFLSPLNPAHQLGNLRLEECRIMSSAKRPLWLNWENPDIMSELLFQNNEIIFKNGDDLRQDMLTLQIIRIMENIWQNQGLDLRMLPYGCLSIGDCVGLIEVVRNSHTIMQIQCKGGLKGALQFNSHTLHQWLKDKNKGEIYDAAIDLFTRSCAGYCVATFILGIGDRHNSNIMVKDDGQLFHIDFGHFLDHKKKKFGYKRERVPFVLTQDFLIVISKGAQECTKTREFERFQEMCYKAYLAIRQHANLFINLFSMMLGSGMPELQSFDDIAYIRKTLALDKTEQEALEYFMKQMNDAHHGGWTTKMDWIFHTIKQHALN
Sequence of p110 alpha (P27986 whole entry partner, canonical isoform): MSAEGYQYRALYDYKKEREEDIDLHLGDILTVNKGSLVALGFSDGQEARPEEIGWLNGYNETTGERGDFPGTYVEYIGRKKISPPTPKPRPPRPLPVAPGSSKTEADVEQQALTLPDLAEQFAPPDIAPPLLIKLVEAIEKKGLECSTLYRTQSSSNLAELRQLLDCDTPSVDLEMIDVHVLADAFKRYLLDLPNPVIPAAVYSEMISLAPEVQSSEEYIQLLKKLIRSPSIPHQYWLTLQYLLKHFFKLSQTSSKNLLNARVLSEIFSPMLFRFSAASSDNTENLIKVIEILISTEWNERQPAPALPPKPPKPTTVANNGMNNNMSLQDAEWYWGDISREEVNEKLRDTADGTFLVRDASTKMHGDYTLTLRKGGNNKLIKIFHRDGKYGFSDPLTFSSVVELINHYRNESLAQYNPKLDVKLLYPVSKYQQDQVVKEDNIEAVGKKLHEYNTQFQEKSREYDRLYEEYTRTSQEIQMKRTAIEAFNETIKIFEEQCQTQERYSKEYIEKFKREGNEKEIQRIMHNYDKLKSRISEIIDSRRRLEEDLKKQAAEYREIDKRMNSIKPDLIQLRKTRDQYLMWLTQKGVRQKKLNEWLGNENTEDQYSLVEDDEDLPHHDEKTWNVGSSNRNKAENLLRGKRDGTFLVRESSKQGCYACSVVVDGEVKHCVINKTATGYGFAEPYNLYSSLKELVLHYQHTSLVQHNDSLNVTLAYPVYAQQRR
Sequence of p110 delta (O00329 whole entry, canonical isoform): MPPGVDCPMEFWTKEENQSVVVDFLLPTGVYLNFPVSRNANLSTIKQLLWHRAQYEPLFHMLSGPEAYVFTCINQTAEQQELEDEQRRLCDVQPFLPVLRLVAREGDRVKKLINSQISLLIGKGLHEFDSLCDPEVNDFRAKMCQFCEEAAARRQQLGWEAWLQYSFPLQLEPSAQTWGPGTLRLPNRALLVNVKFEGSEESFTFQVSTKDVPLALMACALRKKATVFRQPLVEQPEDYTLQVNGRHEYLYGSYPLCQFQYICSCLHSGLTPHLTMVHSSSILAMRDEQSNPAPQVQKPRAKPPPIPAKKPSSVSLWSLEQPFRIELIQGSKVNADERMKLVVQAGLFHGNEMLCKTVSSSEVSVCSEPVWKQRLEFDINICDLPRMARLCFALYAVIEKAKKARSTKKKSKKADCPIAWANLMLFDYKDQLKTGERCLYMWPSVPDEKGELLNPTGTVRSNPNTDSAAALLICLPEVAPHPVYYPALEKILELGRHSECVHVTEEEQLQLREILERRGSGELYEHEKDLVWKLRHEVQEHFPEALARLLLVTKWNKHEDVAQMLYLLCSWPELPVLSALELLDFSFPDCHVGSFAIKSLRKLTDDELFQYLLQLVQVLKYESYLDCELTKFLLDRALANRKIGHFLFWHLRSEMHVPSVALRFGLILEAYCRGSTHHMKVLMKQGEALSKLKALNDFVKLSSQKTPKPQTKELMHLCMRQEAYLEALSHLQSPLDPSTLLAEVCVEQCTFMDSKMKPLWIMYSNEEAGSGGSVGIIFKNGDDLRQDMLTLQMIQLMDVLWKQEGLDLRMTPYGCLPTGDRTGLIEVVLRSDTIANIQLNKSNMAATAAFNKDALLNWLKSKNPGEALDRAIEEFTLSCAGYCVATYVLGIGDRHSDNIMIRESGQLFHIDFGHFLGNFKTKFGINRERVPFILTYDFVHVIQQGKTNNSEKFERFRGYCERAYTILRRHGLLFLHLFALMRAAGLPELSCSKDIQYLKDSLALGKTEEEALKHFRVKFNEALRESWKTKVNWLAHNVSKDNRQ
Sequence of p110 delta (P27986 whole entry partner, canonical isoform): as the sequence (P27986 whole entry partner, canonical isoform) above

On to `Cc1nc(-c2cn3c(n2)-c2ccc(-c4ccnn4C4CC(C)N(C)C(C)C4)cc2OCC3)n(C(C)C)n1` (stereo not drawn) [Example 282, 2-(2-isopropyl-5-methyl-1,2,4-triazol-3-yl)-9-[2-(1,2,6-trimethyl-4-piperidyl)pyrazol-3-yl]-5,6-dihydroimidazo[1,2-d][1,4]benzoxazepine], for which, on p110 delta, the IC50 worked out at 1.3 nM. Also, the “IC50 p110 alpha/IC50 p110 delta” value at p110 alpha is given as 76.9.
On to `Cc1nc(-c2cn3c(n2)-c2ccc(OC4(CC5CC5)CN(C(C)C)C4)cc2OCC3)n(C(C)C)n1` [Example 283, 9-[3-(cyclopropylmethyl)-1-isopropyl-azetidin-3-yl]oxy-2-(2-isopropyl-5-methyl-1,2,4-triazol-3-yl)-5,6-dihydroimidazo[1,2-d][1,4]benzoxazepine], for which the 50% inhibitory concentration (IC50) at p110 delta was found to be 0.936 nM. Besides, the “IC50 p110 alpha/IC50 p110 delta” value at p110 alpha is 75.5.
The matching figures for `Cc1nc(-c2cn3c(n2)-c2ccc(OC4(CC5CC5)CNC4)cc2OCC3)n(C(C)C)n1` [Example 284, 9-[3-(cyclopropylmethyl)azetidin-3-yl]oxy-2-(2-isopropyl-5-methyl-1,2,4-triazol-3-yl)-5,6-dihydroimidazo[1,2-d][1,4]benzoxazepine]: 2.9 nM and 23.9.
The like results for `Cc1nc(-c2cn3c(n2)-c2ccc(-c4ccnn4C4CCCN(C5(C)COC5)C4)cc2OCC3)n(C(C)C)n1` (stereo not drawn) [Example 285, 2-(2-isopropyl-5-methyl-1,2,4-triazol-3-yl)-9-[2-[1-(3-methyloxetan-3-yl)-3-piperidyl]pyrazol-3-yl]-5,6-dihydroimidazo[1,2-d][1,4]benzoxazepine] were, in that order, 1.39 nM and 31.9.
The matching figures for `Cc1nc(-c2cn3c(n2)-c2ccc(-c4cnn(C)c4C4CCCCN4CC(C)(C)O)cc2OCC3)n(C(C)C)n1` (stereo not drawn) [Example 289, 1-[2-[4-[2-(2-isopropyl-5-methyl-1,2,4-triazol-3-yl)-5,6-dihydroimidazo[1,2-d][1,4]benzoxazepin-9-yl]-2-methyl-pyrazol-3-yl]-1-piperidyl]-2-methyl-propan-2-ol]: 0.852 nM and 13.1.
As for `CC(C)n1nc(CO)nc1-c1cn2c(n1)-c1ccc(-c3ccnn3C3CCN(C)CC3)cc1OCC2` [Example 290, [1-isopropyl-5-[9-[2-(1-methyl-4-piperidyl)pyrazol-3-yl]-5,6-dihydroimidazo[1,2-d][1,4]benzoxazepin-2-yl]-1,2,4-triazol-3-yl]methanol], on p110 delta, the IC50 is 2.42 nM. Also, at p110 alpha, the “IC50 p110 alpha/IC50 p110 delta” value was 15.9.
On p110 delta, `Cc1nc(-c2cn3c(n2)-c2ccc(N4CCC4C4CCN(C(C)C)CC4)cc2OCC3)n(C(C)C)n1` (stereo not drawn) [Example 293, 2-(2-isopropyl-5-methyl-1,2,4-triazol-3-yl)-9-[2-(1-isopropyl-4-piperidyl)azetidin-1-yl]-5,6-dihydroimidazo[1,2-d][1,4]benzoxazepine] gave an IC50 of 1.47 nM. The “IC50 p110 alpha/IC50 p110 delta” value on p110 alpha stood at 10.3.
As to `Cc1nc(-c2cn3c(n2)-c2cc([C@@H](C)N4CCN(C(C)(C)C)CC4)c(F)cc2OCC3)n(C(C)C)n1` [Example 294, (R)-10-(1-(4-tert-butylpiperazin-1-yl)ethyl)-9-fluoro-2-(1-isopropyl-3-methyl-1H-1,2,4-triazol-5-yl)-5,6-dihydrobenzo[f]imidazo[1,2-d][1,4]oxazepine], the concentration for half-maximal inhibition (IC50) at p110 delta is 0.777 nM. Moreover, at p110 alpha, the “IC50 p110 alpha/IC50 p110 delta” value is 479.
The like results for `Cc1nc(-c2cn3c(n2)-c2ccc(-c4ccnn4C4CCN(C(C)C)CC4)cc2OCC3)n(C(C)C)n1` [Example 296, 2-(2-isopropyl-5-methyl-1,2,4-triazol-3-yl)-9-[2-(1-isopropyl-4-piperidyl)pyrazol-3-yl]-5,6-dihydroimidazo[1,2-d][1,4]benzoxazepine] were, in that order, 1.06 nM and 31.5.
Regarding `Cc1nc(-c2cn3c(n2)-c2cc([C@H](C)N4CCN(C(C)(C)C)CC4)c(F)cc2OCC3)n(C(C)C)n1` [Example 297, (S)-10-(1-(4-tert-butylpiperazin-1-yl)ethyl)-9-fluoro-2-(1-isopropyl-3-methyl-1H-1,2,4-triazol-5-yl)-5,6-dihydrobenzo[f]imidazo[1,2-d][1,4]oxazepine], the IC50 at p110 delta stood at 2.42 nM. Further, the “IC50 p110 alpha/IC50 p110 delta” value on p110 alpha is recorded as 102.
`CC(C)n1nc(N)nc1-c1cn2c(n1)-c1ccc(-c3ccnn3C3CCN(C)CC3)cc1OCC2` [Example 298, 1-isopropyl-5-[9-[2-(1-methyl-4-piperidyl)pyrazol-3-yl]-5,6-dihydroimidazo[1,2-d][1,4]benzoxazepin-2-yl]-1,2,4-triazol-3-amine] had an IC50 on p110 delta of 0.705 nM. Also, at p110 alpha, the “IC50 p110 alpha/IC50 p110 delta” value was found to be 54.6.
On to `Cc1nc(-c2cn3c(n2)-c2ccc(OC4(CC(C)C)CN(C(C)C)C4)cc2OCC3)n(C(C)C)n1` [Example 301, 9-(3-isobutyl-1-isopropyl-azetidin-3-yl)oxy-2-(2-isopropyl-5-methyl-1,2,4-triazol-3-yl)-5,6-dihydroimidazo[1,2-d][1,4]benzoxazepine], for which the IC50 at p110 delta amounted to 8.67 nM. For the same molecule, the “IC50 p110 alpha/IC50 p110 delta” value on p110 alpha stood at 32.1.
The like results for `Cc1nc(-c2cn3c(n2)-c2cc([C@H](C)N4CCN(C(C)(C)C)CC4)ncc2OCC3)n(C(C)C)n1` [Example 303, (S)-10-(1-(4-tert-butylpiperazin-1-yl)ethyl)-2-(1-isopropyl-3-methyl-1H-1,2,4-triazol-5-yl)-5,6-dihydroimidazo[1,2-d]pyrido[4,3-f][1,4]oxazepine] were, in that order, 1.92 nM and 113.
Consider `CCN1CCC(C2CCCN2c2ccc3c(c2)OCCn2cc(-c4nc(C)nn4C(C)C)nc2-3)CC1` (stereo not drawn) [Example 304, 9-[2-(1-ethyl-4-piperidyl)pyrrolidin-1-yl]-2-(2-isopropyl-5-methyl-1,2,4-triazol-3-yl)-5,6-dihydroimidazo[1,2-d][1,4]benzoxazepine], for which the IC50 on p110 delta is 0.52 nM. Also, at p110 alpha, the “IC50 p110 alpha/IC50 p110 delta” value is listed as 36.4.
In turn, `Cc1nc(-c2cn3c(n2)-c2cc([C@@H](C)N4CCN(C(C)(C)C)CC4)ncc2OCC3)n(C(C)C)n1` [Example 305, (R)-10-(1-(4-tert-butylpiperazin-1-yl)ethyl)-2-(1-isopropyl-3-methyl-1H-1,2,4-triazol-5-yl)-5,6-dihydroimidazo[1,2-d]pyrido[4,3-f][1,4]oxazepine] displayed a concentration for half-maximal inhibition (IC50) on p110 delta of 2.81 nM. Moreover, the “IC50 p110 alpha/IC50 p110 delta” value at p110 alpha was found to be 28.6.
The molecule `Cc1nc(-c2cn3c(n2)-c2ccc(N4CCCC4C4CCN(S(C)(=O)=O)CC4)cc2OCC3)n(C(C)C)n1` (stereo not drawn) [Example 306, 2-(2-isopropyl-5-methyl-1,2,4-triazol-3-yl)-9-[2-(1-methylsulfonyl-4-piperidyl)pyrrolidin-1-yl]-5,6-dihydroimidazo[1,2-d][1,4]benzoxazepine] registered a concentration for half-maximal inhibition (IC50) at p110 delta of 1.18 nM. The “IC50 p110 alpha/IC50 p110 delta” value at p110 alpha was 12.4.
For `Cc1nc(-c2cn3c(n2)-c2ccc(N4CCCC4C4CCCN(C)C4)cc2OCC3)n(C(C)C)n1` (stereo not drawn) [Example 311, 2-(2-isopropyl-5-methyl-1,2,4-triazol-3-yl)-9-[2-(1-methyl-3-piperidyl)pyrrolidin-1-yl]-5,6-dihydroimidazo[1,2-d][1,4]benzoxazepine], on p110 delta, the IC50 stood at 1.35 nM. In addition, at p110 alpha, the “IC50 p110 alpha/IC50 p110 delta” value worked out at 46.8.
The molecule `Cc1nc(-c2cn3c(n2)-c2ccc(N4CCCC45CCCN(C)C5)cc2OCC3)n(C(C)C)n1` (stereo not drawn) [Example 314, 2-(2-isopropyl-5-methyl-1,2,4-triazol-3-yl)-9-(7-methyl-1,7-diazaspiro[4.5]decan-1-yl)-5,6-dihydroimidazo[1,2-d][1,4]benzoxazepine] yielded an IC50 at p110 delta of 0.335 nM. Also, the “IC50 p110 alpha/IC50 p110 delta” value at p110 alpha was found to be 50.1.
In the case of `Cc1nc(-c2cn3c(n2)-c2cc(-c4ccnn4[C@@H]4CCCN(C(C)C)C4)c(F)cc2OCC3)n(C(C)C)n1` [Example 315, (R)-9-fluoro-2-(1-isopropyl-3-methyl-1H-1,2,4-triazol-5-yl)-10-(1-(1-isopropylpiperidin-3-yl)-1H-pyrazol-5-yl)-5,6-dihydrobenzo[f]imidazo[1,2-d][1,4]oxazepine], the IC50 at p110 delta was 0.44 nM. At p110 alpha, the “IC50 p110 alpha/IC50 p110 delta” value is listed as 25.8.
The like results for `Cc1nc(-c2cn3c(n2)-c2cc(-c4ccnn4[C@H]4CCCN(C(C)C)C4)c(F)cc2OCC3)n(C(C)C)n1` [Example 316, (S)-9-fluoro-2-(1-isopropyl-3-methyl-1H-1,2,4-triazol-5-yl)-10-(1-(1-isopropylpiperidin-3-yl)-1H-pyrazol-5-yl)-5,6-dihydrobenzo[f]imidazo[1,2-d][1,4]oxazepine] were, in that order, under 0.035 nM and 214.
The like results for `Cc1nc(-c2cn3c(n2)-c2ccc(-c4cnc(C)n4C4CCCN(C(C)C)C4)cc2OCC3)n(C(C)C)n1` (stereo not drawn) [Example 317, 2-(2-isopropyl-5-methyl-1,2,4-triazol-3-yl)-9-[3-(1-isopropyl-3-piperidyl)-2-methyl-imidazol-4-yl]-5,6-dihydroimidazo[1,2-d][1,4]benzoxazepine] were, in that order, 6.51 nM and 22.3.

Broadly, the IC50 is the concentration needed to halve the response being measured.

For the origin of these results see US9090628B2, “Benzoxazepin compounds selective for PI3K P110 delta and methods of use” (GENENTECH, INC., priority 2011, dated 2015).
